Data: ChEMBL document CHEMBL1201862, “PubChem BioAssay data set” (2004)
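1) Cells in 96-well plates. 2) Compound, 48 h, 5 concentrations. 3) Linear interpolation between surrounding doses. 4) Unreached endpoint = highest concentration. GI50 marks 50% less growth.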 Activity calls are given as the source filed them. Cut-off read from the data, not from the text of the source: active = GI50 up to about 1.1 µM and inactive = higher.

Key:
Experiment in all cases: growth of human tumour cells (NCI), 48 h
HOP-62 = system: HOP-62
UACC-62 = system: UACC-62
K562 = system: K562
RXF 393 = system: RXF 393
SNB-78 = system: SNB-78
HCT-116 = system: HCT-116
LOX IMVI = system: LOX IMVI
HCT-15 = system: HCT-15
OVCAR-5 = system: OVCAR-5
SK-MEL-5 = system: SK-MEL-5
XF498 = system: XF498
SR = system: SR
IGROV-1 = system: IGROV-1
U-251 = system: U-251
COLO 205 = system: COLO 205
HCC 2998 = system: HCC 2998
A549 = system: A549
A498 = system: A498
DMS-273 = system: DMS-273
NCI-H226 = system: NCI-H226
M19-MEL = system: M19-MEL
SK-OV-3 = system: SK-OV-3
OVCAR-8 = system: OVCAR-8
SF-268 = system: SF-268
SNB-75 = system: SNB-75
RPMI-8226 = system: RPMI-8226
SF-539 = system: SF-539
ACHN = system: ACHN
KM12 = system: KM12
HL-60 = system: HL-60
SF-295 = system: SF-295
MOLT-4 = system: MOLT-4
HT-29 = system: HT-29
SNB-19 = system: SNB-19
LXFL 529 = system: LXFL 529
DLD-1 = system: DLD-1
786-0 = system: 786-0
TK-10 = system: TK-10
SW-620 = system: SW-620
NCI-H460 = system: NCI-H460
HOP-18 = system: HOP-18
NCI-H23 = system: NCI-H23
RXF 631 = system: RXF 631
CCRF-CEM = system: CCRF-CEM
Malme-3M = system: Malme-3M
OVCAR-4 = system: OVCAR-4
CAKI-1 = system: CAKI-1
EKVX = system: EKVX
KM-20L2 = system: KM-20L2
SK-MEL-28 = system: SK-MEL-28
DMS-114 = system: DMS-114
OVCAR-3 = system: OVCAR-3
UO-31 = system: UO-31
HOP-92 = system: HOP-92
SN12C = system: SN12C
M14 = system: M14
UACC-257 = system: UACC-257

With COC(=O)C1=C(O)c2cc3c(cc2[C@H](c2cc(OC)c(OC)c(OC)c2)C1C(=O)OC)OCO3 (some centres not stated) the GI50 (HOP-62) was > 100 µM (inactive), the GI50 (UACC-62) was 30.1 µM (inactive) and the GI50 (K562) was 72.1 µM (inactive). The GI50 (RXF 393) was 30.2 µM (inactive), the GI50 (SNB-78) was 53.2 µM (inactive) and the GI50 (HCT-116) was 34.7 µM (inactive). The GI50 (LOX IMVI) was > 100 µM (inactive), the GI50 (HCT-15) was over 100 µM and the GI50 (OVCAR-5) was > 100 µM (inactive). The GI50 (SK-MEL-5) was 32.8 µM (inactive), the GI50 (XF498) was 25.1 µM (inactive) and the GI50 (SR) was 86.5 µM (inactive). The GI50 (IGROV-1) was 48.6 µM (inactive), the GI50 (U-251) was 82.8 µM (inactive) and the GI50 (COLO 205) was 19.7 µM (inactive). For the same molecule, the GI50 (HCC 2998) was > 100 µM (inactive), the GI50 (A549) was > 100 µM (inactive) and the GI50 (A498) was 76 µM (inactive). For the same molecule, the GI50 (DMS-273) was 65.2 µM (inactive), the GI50 (NCI-H226) was 33 µM (inactive) and the GI50 (M19-MEL) was 39.5 µM (inactive). The GI50 (SK-OV-3) was 44.1 µM (inactive), the GI50 (OVCAR-8) was 39.5 µM (inactive) and the GI50 (SF-268) was 50.8 µM (inactive). The GI50 (SNB-75) was 22.8 µM (inactive), the GI50 (RPMI-8226) was > 100 µM (inactive) and the GI50 (SF-539) was 20.7 µM (inactive). For the same molecule, the GI50 (ACHN) was 22.1 µM (inactive), the GI50 (KM12) was 35.2 µM (inactive) and the GI50 (HL-60) was > 100 µM (inactive). For the same molecule, the GI50 (SF-295) was 57 µM (inactive), the GI50 (MOLT-4) was 58.9 µM (inactive) and the GI50 (HT-29) was 95.5 µM (inactive). For the same molecule, the GI50 (SNB-19) was > 100 µM (inactive), the GI50 (LXFL 529) was 56.5 µM (inactive) and the GI50 (DLD-1) was 67 µM (inactive). The GI50 (786-0) was 42.7 µM (inactive), the GI50 (TK-10) was 31.3 µM (inactive) and the GI50 (SW-620) was 80.2 µM (inactive). The GI50 (NCI-H460) was 61 µM (inactive), the GI50 (HOP-18) was 29.2 µM (inactive) and the GI50 (NCI-H23) was > 100 µM (inactive). For the same molecule, the GI50 (RXF 631) was > 100 µM (inactive), the GI50 (CCRF-CEM) was > 100 µM (inactive) and the GI50 (Malme-3M) was 28.9 µM (inactive). The GI50 (OVCAR-4) was 30.2 µM (inactive), the GI50 (CAKI-1) was 25.2 µM (inactive) and the GI50 (EKVX) was 68.2 µM (inactive). The GI50 (KM-20L2) was > 100 µM (inactive), the GI50 (SK-MEL-28) was 52.8 µM (inactive) and the GI50 (DMS-114) was 25 µM (inactive). For the same molecule, the GI50 (OVCAR-3) was 30.4 µM (inactive), the GI50 (UO-31) was 42.3 µM (inactive) and the GI50 (HOP-92) was 33.7 µM (inactive). For the same molecule, the GI50 (SN12C) was 25.5 µM (inactive), the GI50 (M14) was 89.5 µM (inactive) and the GI50 (UACC-257) was 47.3 µM (inactive).
